Source: patent publication US20240383874A1, “BENZENE RING DERIVATIVE, AND COMPOSITION AND PHARMACEUTICAL USE THEREOF” (Xizang Haisco Pharmaceutical Co., Ltd., priority 2020, published 2024)
Where a name gives a salt, the structure may show the parent alone. Read-outs that look alike come from different tables or passages of the source.

System: 22RV1 cells
Assay: Experiment 2 on inhibiting 22RV1 cell proliferation (7 days, CellTiter-Glo)
Format: cell-based
Details: 1% css-FBS phenol red-free medium, incubated with compound 7 days, read-out: IC50 values on proliferation inhibition of 22RV1 cells
Protocol: Prostate cancer cells 22RV1 were purchased from ATCC, the cell medium was RPMI 1640+10% FBS, and the cells were cultured in an incubator at 37° C. under 5% CO2. On day 1, the cells in an exponential phase were collected. With a 1% css-FBS phenol red-free medium, the cell suspension was adjusted to a corresponding concentration, plated at 2000 cells/well and incubated overnight. On day 2, compounds at different concentrations were added, and the plate was placed in the incubator and incubated for further 7 days. After the incubation was completed, according to operation instructions for a CellTiter-Glo kit (Promega, G7573), 50 μL of CTG solution, which was already pre-melted and equilibrated to room temperature, was added to each well, and the mixtures were uniformly mixed for 2 min using a microplate shaker. The plate was placed at room temperature for 10 min, and then fluorescence signal values were measured using a microplate reader (PHERAstar FSX). The results were processed according to formula (2), the survival rate of the compound at different concentrations was calculated, and the IC50 value of the compound with a survival rate of 50% was calculated using origin9.2 software with DoseResp function, wherein RLU compound was the readout of the treated group, and RLU control was the average value of the DMSO vehicle control group.

| SMILES | IC50 [nM] | IC50 (Homo sapiens, 22Rv1, 168 h) [nM] |
| --- | --- | --- |
| CC(C)(c1ccc(OCc2ccnc(N3CCN(CC4CCN(C5CCN(c6ccc7c(c6)C(=O)N(C6CCC(=O)NC6=O)C7=O)CC5)CC4)CC3)n2)cc1)c1cc(Cl)c(OCCCl)c(C#N)c1 (stereo not shown) [Compound 11, 3-chloro-2-(2-chloroethoxy)-5-(2-(4-((2-(4-((1′-(2-(2,6-dioxopiperidin-3-yl)-1,3-dioxoisoindolin-5-yl)-[1,4′-bipiperidin]-4-yl)methyl)piperazin-1-yl)pyrimidin-4-yl)methoxy)phenyl)propan-2-yl)benzonitrile] | 356 |  |
| CC(C)(c1ccc(OCc2ccnc(N3CCN(CC4CCN(C5CCN(c6cccc7c6C(=O)N(C6CCC(=O)NC6=O)C7=O)CC5)CC4)CC3)n2)cc1)c1cc(Cl)c(OCCCl)c(C#N)c1 (stereo not shown) [Compound 12, 3-chloro-2-(2-chloroethoxy)-5-(2-(4-((2-(4-((1′-(2-(2,6-dioxopiperidin-3-yl)-1,3-dioxoisoindolin-4-yl)-[1,4′-bipiperidin]-4-yl)methyl)piperazin-1-yl)pyrimidin-4-yl)methoxy)phenyl)propan-2-yl)benzonitrile] | 804 |  |
| CC(C)(c1ccc(OCc2ccnc(N3CCN(CC4CCN(CC5CCN(c6ccc7c(c6)C(=O)N(C6CCC(=O)NC6=O)C7=O)CC5)CC4)CC3)n2)cc1)c1cc(Cl)c(OCCCl)c(C#N)c1 (stereo not shown) [Compound 13, 3-chloro-2-(2-chloroethoxy)-5-(2-(4-((2-(4-((1-((1-(2-(2,6-dioxopiperidin-3-yl)-1,3-dioxoisoindolin-5-yl)piperidin-4-yl)methyl)piperidin-4-yl)methyl)piperazin-1-yl)pyrimidin-4-yl)methoxy)phenyl)propan-2-yl)benzonitrile] | 721 |  |
| CC(C)(c1ccc(OCc2ccnc(N3CCN(CC4CCN(CC5CCN(c6cccc7c6C(=O)N(C6CCC(=O)NC6=O)C7=O)CC5)CC4)CC3)n2)cc1)c1cc(Cl)c(OCCCl)c(C#N)c1 (stereo not shown) [Compound 14, 3-chloro-2-(2-chloroethoxy)-5-(2-(4-((2-(4-((1-((1-(2-(2,6-dioxopiperidin-3-yl)-1,3-dioxoisoindolin-4-yl)piperidin-4-yl)methyl)piperidin-4-yl)methyl)piperazin-1-yl)pyrimidin-4-yl)methoxy)phenyl)propan-2-yl)benzonitrile] | 628 |  |
| CC(C)(c1ccc(OCc2ccnc(N3C[C@@H]4CN(C5CCN(CC6CCN(c7ccc8c(c7)C(=O)N(C7CCC(=O)NC7=O)C8=O)CC6)CC5)C[C@@H]4C3)n2)cc1)c1cc(Cl)c(OCCCl)c(C#N)c1 (stereo partly drawn) [Compound 16, 3-chloro-2-(2-chloroethoxy)-5-(2-(4-((2-((3aR,6aS)-5-(1-((1-(2-(2,6-dioxopiperidin-3-yl)-1,3-dioxoisoindolin-5-yl)piperidin-4-yl)methyl)piperidin-4-yl)hexahydropyrrolo[3,4-c]pyrrol-2(1H)-yl)pyrimidin-4-yl)methoxy)phenyl)propan-2-yl)benzonitrile] | 802 |  |
| CC(C)(c1ccc(OCc2ccnc(N3C[C@@H]4CN(C5CCN(C6CN(c7ccc8c(c7)C(=O)N(C7CCC(=O)NC7=O)C8=O)C6)CC5)C[C@@H]4C3)n2)cc1)c1cc(Cl)c(OCCCl)c(C#N)c1 (stereo partly drawn) [Compound 17, 3-chloro-2-(2-chloroethoxy)-5-(2-(4-((2-((3aR,6aS)-5-(1-(1-(2-(2,6-dioxopiperidin-3-yl)-1,3-dioxoisoindolin-5-yl)azetidin-3-yl)piperidin-4-yl)hexahydropyrrolo[3,4-c]pyrrol-2(1H)-yl)pyrimidin-4-yl)methoxy)phenyl)propan-2-yl)benzonitrile] | 1020 |  |
| CC(C)(c1ccc(OCc2ccnc(N3CCC4(CC3)CN(C3CCN(C5CN(c6ccc7c(c6)C(=O)N(C6CCC(=O)NC6=O)C7=O)C5)CC3)C4)n2)cc1)c1cc(Cl)c(OCCCl)c(C#N)c1 (stereo not shown) [Compound 20, 3-chloro-2-(2-chloroethoxy)-5-(2-(4-((2-(2-(1-(1-(2-(2,6-dioxopiperidin-3-yl)-1,3-dioxoisoindolin-5-yl)azetidin-3-yl)piperidin-4-yl)-2,7-diazaspiro[3.5]nonan-7-yl)pyrimidin-4-yl)methoxy)phenyl)propan-2-yl)benzonitrile] | 954 |  |
| CC(C)(c1ccc(OCc2ccnc(N3CCC4(CC3)CN(C3CCN(CC5CCN(c6ccc7c(c6)C(=O)N(C6CCC(=O)NC6=O)C7=O)CC5)CC3)C4)n2)cc1)c1cc(Cl)c(OCCCl)c(C#N)c1 (stereo not shown) [Compound 21, 3-chloro-2-(2-chloroethoxy)-5-(2-(4-((2-(2-(1-((1-(2-(2,6-dioxopiperidin-3-yl)-1,3-dioxoisoindolin-5-yl)piperidin-4-yl)methyl)piperidin-4-yl)-2,7-diazaspiro[3.5]nonan-7-yl)pyrimidin-4-yl)methoxy)phenyl)propan-2-yl)benzonitrile] | 507 |  |
| CC(C)(c1ccc(OCc2ccnc(N3CC4(CCN(C5CCN(C6CN(c7ccc8c(c7)C(=O)N(C7CCC(=O)NC7=O)C8=O)C6)CC5)CC4)C3)n2)cc1)c1cc(Cl)c(OCCCl)c(C#N)c1 (stereo not shown) [Compound 23, 3-chloro-2-(2-chloroethoxy)-5-(2-(4-((2-(7-(1-(1-(2-(2,6-dioxopiperidin-3-yl)-1,3-dioxoisoindolin-5-yl)azetidin-3-yl)piperidin-4-yl)-2,7-diazaspiro[3.5]nonan-2-yl)pyrimidin-4-yl)methoxy)phenyl)propan-2-yl)benzonitrile] | 500 |  |
| CC(C)(c1ccc(OCc2ccnc(N3CC4(CCN(C5CCN(CC6CCN(c7ccc8c(c7)C(=O)N(C7CCC(=O)NC7=O)C8=O)CC6)CC5)CC4)C3)n2)cc1)c1cc(Cl)c(OCCCl)c(C#N)c1 (stereo not shown) [Compound 24, 3-chloro-2-(2-chloroethoxy)-5-(2-(4-((2-(7-(1-((1-(2-(2,6-dioxopiperidin-3-yl)-1,3-dioxoisoindolin-5-yl)piperidin-4-yl)methyl)piperidin-4-yl)-2,7-diazaspiro[3.5]nonan-2-yl)pyrimidin-4-yl)methoxy)phenyl)propan-2-yl)benzonitrile] | 569 |  |
| CC(C)(c1ccc(OCc2ccnc(N3CC4(CCN(C5CCN(CC6CCN(c7cccc8c7C(=O)N(C7CCC(=O)NC7=O)C8=O)CC6)CC5)CC4)C3)n2)cc1)c1cc(Cl)c(OCCCl)c(C#N)c1 (stereo not shown) [Compound 25, 3-chloro-2-(2-chloroethoxy)-5-(2-(4-((2-(7-(1-((1-(2-(2,6-dioxopiperidin-3-yl)-1,3-dioxoisoindolin-4-yl)piperidin-4-yl)methyl)piperidin-4-yl)-2,7-diazaspiro[3.5]nonan-2-yl)pyrimidin-4-yl)methoxy)phenyl)propan-2-yl)benzonitrile] | 542 |  |
| Cn1c(=O)n(C2CCC(=O)NC2=O)c2cccc(CN3CC(N4CCC(N5CCC6(CC5)CN(c5nccc(COc7ccc(C(C)(C)c8cc(Cl)c(OCCCl)c(C#N)c8)cc7)n5)C6)CC4)C3)c21 (stereo not shown) [Compound 26, 3-chloro-2-(2-chloroethoxy)-5-(2-(4-((2-(7-(1-(1-((1-(2,6-dioxopiperidin-3-yl)-3-methyl-2-oxo-2,3-dihydro-1H-benzo[d]imidazol-4-yl)methyl)azetidin-3-yl)piperidin-4-yl)-2,7-diazaspiro[3.5]nonan-2-yl)pyrimidin-4-yl)methoxy)phenyl)propan-2-yl)benzonitrile] | 548 |  |
| CC(C)(c1ccc(OCc2ccnc(N3CCC4(CC3)CCN(C3CCN(CC5CCN(c6ccc7c(c6)C(=O)N(C6CCC(=O)NC6=O)C7=O)CC5)CC3)CC4)n2)cc1)c1cc(Cl)c(OCCCl)c(C#N)c1 (stereo not shown) [Compound 27, 3-chloro-2-(2-chloroethoxy)-5-(2-(4-((2-(9-(1-((1-(2-(2,6-dioxopiperidin-3-yl)-1,3-dioxoisoindolin-5-yl)piperidin-4-yl)methyl)piperidin-4-yl)-3,9-diazaspiro[5.5]undecan-3-yl)pyrimidin-4-yl)methoxy)phenyl)propan-2-yl)benzonitrile] | 663 |  |
| CC(C)(c1ccc(OCc2ccnc(N3CCC4(CC3)CCN(C3CCN(CC5CCN(c6cccc7c6C(=O)N(C6CCC(=O)NC6=O)C7=O)CC5)CC3)CC4)n2)cc1)c1cc(Cl)c(OCCCl)c(C#N)c1 (stereo not shown) [Compound 28, 3-chloro-2-(2-chloroethoxy)-5-(2-(4-((2-(9-(1-((1-(2-(2,6-dioxopiperidin-3-yl)-1,3-dioxoisoindolin-4-yl)piperidin-4-yl)methyl)piperidin-4-yl)-3,9-diazaspiro[5.5]undecan-3-yl)pyrimidin-4-yl)methoxy)phenyl)propan-2-yl)benzonitrile] | 634 |  |
| Cn1c(=O)n(C2CCC(=O)NC2=O)c2cccc(CN3CC(N4CCC5(CCN(c6nccc(COc7ccc(C(C)(C)c8cc(Cl)c(OCCCl)c(C#N)c8)cc7)n6)CC5)CC4)C3)c21 (stereo not shown) [Compound 29 trifluoroacetate, 3-chloro-2-(2-chloroethoxy)-5-(2-(4-((2-(9-(1-((1-(2,6-dioxopiperidin-3-yl)-3-methyl-2-oxo-2,3-dihydro-1H-benzo[d]imidazol-4-yl)methyl)azetidin-3-yl)-3,9-diazaspiro[5.5]undecan-3-yl)pyrimidin-4-yl)methoxy)phenyl)propan-2-yl)benzonitrile] |  | 788 |
| CC(C)(c1ccc(OCc2ccnc(N3CCC4(CC3)CCN(C3CCN(C5CN(c6ccc7c(c6)C(=O)N(C6CCC(=O)NC6=O)C7=O)C5)CC3)CC4)n2)cc1)c1cc(Cl)c(OCCCl)c(C#N)c1 (stereo not shown) [Compound 30 trifluoroacetate, 3-chloro-2-(2-chloroethoxy)-5-(2-(4-((2-(9-(1-(1-(2-(2,6-dioxopiperidin-3-yl)-1,3-dioxoisoindolin-5-yl)azetidin-3-yl)piperidin-4-yl)-3,9-diazaspiro[5.5]undecan-3-yl)pyrimidin-4-yl)methoxy)phenyl)propan-2-yl)benzonitrile] |  | 834 |
